Target: full-length human LSD1 (Homo sapiens (Human), UniProt O60341)
Experiment: In vitro enzyme inhibition assay LSD-1 (TR-FRET)
Format: biochemical
Details: H3K4me1-biotin peptide
Procedure: This assay determines the ability of a test compound to inhibit LSD1 demethylase activity.
The enzymatic assay of LSD1 activity is based on Time Resolved-Fluorescence Resonance Energy Transfer (TR-FRET) detection.
The ability of the compounds disclosed herein to inhibit LSD1 activity was quantified and the respective IC50 value was determined.

**Q.** With COc1ccc(-c2c(-c3ccc(C#N)c(F)c3)nc(N3CC(N)C3)n(C)c2=O)cc1 [Example 64, 4-[2-(3-amino-azetidin-1-yl)-5-(4-methoxy-phenyl)-1-methyl-6-oxo-1,6-dihydro-pyrimidin-4-yl]-2-fluoro-benzonitrile] as the compound, how does the IC50 read?
**A.** < 100 nM

**Q.** For COCCOc1ccc(-c2c(-c3ccc(C#N)c(F)c3)nc(N3CCC(N)CC3)n(C)c2=O)cc1 [Example 98, 4-[2-(4-aminopiperidin-1-yl)-5-[4-(2-methoxyethoxy)phenyl]-1-methyl-6-oxopyrimidin-4-yl]-2-fluorobenzonitrile], which IC50 is on record?
**A.** < 100 nM

**Q.** For Cn1c(N2CCC(N)CC2)nc(-c2ccc(C#N)c(F)c2)c(C#N)c1=O [Example 19, 2-(4-amino-piperidin-1-yl)-4-(4-cyano-3-fluoro-phenyl)-1-methyl-6-oxo-1,6-dihydro-pyrimidine-5-carbonitrile], which IC50 is on record?
**A.** < 100 nM

**Q.** With COc1ccc(-c2c(-c3ccc(C#N)cc3)nc(NC[C@H]3CCNC3)n(C)c2=O)cc1F [Example 44, 4-{5-(3-fluoro-4-methoxy-phenyl)-1-methyl-6-oxo-2-[(3S)-(pyrrolidin-3-ylmethyl)-amino]-1,6-dihydro-pyrimidin-4-yl}-benzonitrile] as the compound, how does the IC50 read?
**A.** < 100 nM

**Q.** With COc1ccc(-c2c(-c3ccc(C#N)c(F)c3)nc(NC3CCNCC3)n(C)c2=O)cc1 [Example 53, 2-fluoro-4-[5-(4-methoxy-phenyl)-1-methyl-6-oxo-2-(piperidin-4-ylamino)-1,6-dihydro-pyrimidin-4-yl]-benzonitrile] as the compound, how does the IC50 read?
**A.** < 100 nM

**Q.** CNC1CCN(c2nc(-c3ccc(C#N)c(F)c3)c(-c3ccc(OC)cc3)c(=O)n2C)CC1 [Example 11, 2-fluoro-4-[5-(4-methoxy-phenyl)-1-methyl-2-(4-methylamino-piperidin-1-yl)-6-oxo-1,6-dihydro-pyrimidin-4-yl]-benzonitrile] was tested. Which IC50 did it give?
**A.** < 100 nM

**Q.** Which IC50 does the source give for Cn1c(N2CCC(N)CC2)nc(-c2ccc(C#N)c(F)c2)c(C#N)c1=O [Example 121, 2-(4-amino-piperidin-1-yl)-4-(4-cyano-3-fluoro-phenyl)-1-methyl-6-oxo-1,6-dihydro-pyrimidine-5-carbonitrile] here?
**A.** 100 to 1000 nM

**Q.** COc1ccc(-c2c(-c3ccc(C#N)c(F)c3)nc(N3CCCNCC3)n(C)c2=O)cc1F [Example 46, 4-[2-[1,4]diazepan-1-yl-5-(3-fluoro-4-methoxy-phenyl)-1-methyl-6-oxo-1,6-dihydro-pyrimidin-4-yl]-2-fluoro-benzonitrile] was tested. Which IC50 did it give?
**A.** < 100 nM

**Q.** For CNC1CCN(c2nc(-c3ccc(C#N)c(F)c3)c(-c3ccc(N(C)C)nc3)c(=O)n2C)CC1 [Example 83, 4-[5-(6-dimethylamino-pyridin-3-yl)-1-methyl-2-(4-methylamino-piperidin-1-yl)-6-oxo-1,6-dihydro-pyrimidin-4-yl]-2-fluoro-benzonitrile], which IC50 is on record?
**A.** < 100 nM

**Q.** Cn1c(N2CCC(N)CC2)nc(-c2ccc(C#N)c(F)c2)c(-c2ccc(S(C)(=O)=O)cc2)c1=O [Example 105, 4-[2-(4-aminopiperidin-1-yl)-1-methyl-5-(4-methylsulfonylphenyl)-6-oxopyrimidin-4-yl]-2-fluorobenzonitrile] was tested. Which IC50 did it give?
**A.** < 100 nM

**Q.** For CCOc1ncc(-c2c(-c3ccc(C#N)c(F)c3)nc(N3CCC(N)CC3)n(C)c2=O)cc1F [Example 93, 4-[2-(4-aminopiperidin-1-yl)-5-(6-ethoxy-5-fluoropyridin-3-yl)-1-methyl-6-oxopyrimidin-4-yl]-2-fluorobenzonitrile], which IC50 is on record?
**A.** < 100 nM

**Q.** Which IC50 does the source give for Cn1c(N2CCC(N)CC2)nc(-c2ccc(C#N)c(F)c2)c(-c2ccc(Cl)cc2)c1=O [Example 106, 4-[2-(4-aminopiperidin-1-yl)-5-(4-chlorophenyl)-1-methyl-6-oxopyrimidin-4-yl]-2-fluorobenzonitrile] here?
**A.** < 100 nM

**Q.** For COc1ccc(-c2c(-c3ccccc3C#N)nc(N3CCC(N)CC3)n(C)c2=O)cc1F [Example 119, 2-[2-(4-aminopiperidin-1-yl)-5-(3-fluoro-4-methoxyphenyl)-1-methyl-6-oxopyrimidin-4-yl]benzonitrile], which IC50 is on record?
**A.** > 10000 nM

**Q.** Which IC50 does the source give for Cn1c(N2CCC(N)CC2)nc(-c2ccc(C#N)c(F)c2)c(-c2ccc(F)c(F)c2)c1=O [Example 104, 4-[2-(4-aminopiperidin-1-yl)-5-(3,4-difluorophenyl)-1-methyl-6-oxopyrimidin-4-yl]-2-fluorobenzonitrile] here?
**A.** < 100 nM

**Q.** How did the IC50 turn out when COc1ccc(-c2c(-c3ccc(C#N)c(F)c3)nc(N3CCNCC3)n(C)c2=O)cc1F [Example 47, 2-fluoro-4-[5-(3-fluoro-4-methoxy-phenyl)-1-methyl-6-oxo-2-piperazin-1-yl-1,6-dihydro-pyrimidin-4-yl]-benzonitrile] was run?
**A.** < 100 nM

**Q.** With C#Cc1c(-c2ccc(C#N)c(F)c2)nc(N2CCC(N)CC2)n(C)c1=O [Example 110] as the compound, how does the IC50 read?
**A.** < 100 nM

**Q.** For Cc1ccc(-c2c(-c3ccc(C#N)cc3)nc(N3CCC(N)CC3)n(C)c2=O)cn1 [Example 4, 4-[2-(4-amino-piperidin-1-yl)-1-methyl-5-(6-methyl-pyridin-3-yl)-6-oxo-1,6-dihydro-pyrimidin-4-yl]-benzonitrile], which IC50 is on record?
**A.** < 100 nM

**Q.** Which IC50 does the source give for CN(C)c1ccc(-c2c(-c3ccc(C#N)cc3)nc(N3CCCNCC3)n(C)c2=O)cn1 [Example 67, 4-[2-[1,4]diazepan-1-yl-5-(6-dimethylamino-pyridin-3-yl)-1-methyl-6-oxo-1,6-dihydro-pyrimidin-4-yl]-benzonitrile] here?
**A.** < 100 nM

**Q.** With CNC1CCN(c2nc(-c3ccc(C#N)c(F)c3)c(-c3ccc(C)nc3)c(=O)n2C)CC1 [Example 21, 2-fluoro-4-[1-methyl-2-(4-methylamino-piperidin-1-yl)-5-(6-methyl-pyridin-3-yl)-6-oxo-1,6-dihydro-pyrimidin-4-yl]-benzonitrile] as the compound, how does the IC50 read?
**A.** < 100 nM

**Q.** For CNC(=O)c1ccc(-c2c(-c3ccc(C#N)cc3)nc(N3CCC(N)CC3)n(C)c2=O)cc1F [Example 40, {4-[2-(4-aminopiperidyl)-6-(4-cyanophenyl)-3-methyl-4-oxo(3-hydropyrimidin-5-yl)]-2-fluorophenyl}-N-methylcarboxamide], which IC50 is on record?
**A.** < 100 nM

**Q.** Which IC50 does the source give for COc1ccc(-c2c(-c3ccc(C#N)c(F)c3)nc(NC[C@H]3CCNC3)n(C)c2=O)cc1 [Example 51, 2-fluoro-4-{5-(4-methoxy-phenyl)-1-methyl-6-oxo-2-[(3S)-(pyrrolidin-3-ylmethyl)-amino]-1,6-dihydro-pyrimidin-4-yl}-benzonitrile] here?
**A.** < 100 nM

**Q.** Which IC50 does the source give for CCOc1ccc(-c2c(-c3ccc(C#N)c(F)c3)nc(N3CCC(N)CC3)n(C)c2=O)cn1 [Example 94, 4-[2-(4-aminopiperidin-1-yl)-5-(6-ethoxypyridin-3-yl)-1-methyl-6-oxopyrimidin-4-yl]-2-fluorobenzonitrile] here?
**A.** < 100 nM

**Q.** Cn1c(N2CCC(N)CC2)nc(-c2ccc(C#N)c(F)c2)c(-c2ccc3[nH]ncc3c2)c1=O [Example 88, 4-[2-(4-aminopiperidin-1-yl)-5-(1H-indazol-5-yl)-1-methyl-6-oxopyrimidin-4-yl]-2-fluorobenzonitrile] was tested. Which IC50 did it give?
**A.** < 100 nM

**Q.** Which IC50 does the source give for CCn1c(N2CCC(N)CC2)nc(-c2ccc(C#N)c(F)c2)cc1=O [Example 13, 4-[2-(4-amino-piperidin-1-yl)-1-ethyl-6-oxo-1,6-dihydro-pyrimidin-4-yl]-2-fluoro-benzonitrile] here?
**A.** 100 to 1000 nM

**Q.** For COCc1ccc(-c2c(-c3ccc(C#N)c(F)c3)nc(N3CCC(N)CC3)n(C)c2=O)cc1 [Example 107, 4-[2-(4-aminopiperidin-1-yl)-5-[4-(methoxymethyl)phenyl]-1-methyl-6-oxopyrimidin-4-yl]-2-fluorobenzonitrile], which IC50 is on record?
**A.** < 100 nM

**Q.** How did the IC50 turn out when COc1ccc(-c2c(-c3ccc(C#N)c(F)c3)nc(N3CCC(N)CC3)n(CC(=O)O)c2=O)cc1 [Example 15, [2-(4-amino-piperidin-1-yl)-4-(4-cyano-3-fluoro-phenyl)-5-(4-methoxy-phenyl)-6-oxo-6H-pyrimidin-1-yl]-acetic acid] was run?
**A.** < 100 nM

**Q.** With Cn1c(N2CCC(N)CC2)nc(-c2ccc(C#N)c(F)c2)c(-c2ccc(N3CCOCC3)nc2)c1=O [Example 68, 4-[2-(4-amino-piperidin-1-yl)-1-methyl-5-(6-morpholin-4-yl-pyridin-3-yl)-6-oxo-1,6-dihydro-pyrimidin-4-yl]-2-fluoro-benzonitrile] as the compound, how does the IC50 read?
**A.** < 100 nM

**Q.** For COc1ccc(-c2c(-c3ccc(C#N)cc3)nc(NC[C@@H]3CCNC3)n(C)c2=O)cc1F [Example 45, 4-{5-(3-fluoro-4-methoxy-phenyl)-1-methyl-6-oxo-2-[(3R)-(pyrrolidin-3-ylmethyl)-amino]-1,6-dihydro-pyrimidin-4-yl}-benzonitrile], which IC50 is on record?
**A.** < 100 nM

**Q.** How did the IC50 turn out when Cn1c(N2CCC(N)CC2)nc(-c2ccc(C#N)c(F)c2)c(-c2ccc(F)cc2)c1=O [Example 101, 4-[2-(4-aminopiperidin-1-yl)-5-(4-fluorophenyl)-1-methyl-6-oxopyrimidin-4-yl]-2-fluorobenzonitrile] was run?
**A.** < 100 nM

**Q.** Which IC50 does the source give for COc1ccc(-c2c(-c3ccc(C#N)c(F)c3)nc(NC[C@@H]3CCNC3)n(C)c2=O)cc1 [Example 52, 2-luoro-4-{5-(4-methoxy-phenyl)-1-methyl-6-oxo-2-[(3R)-(pyrrolidin-3-ylmethyl)-amino]-1,6-dihydro-pyrimidin-4-yl}-benzonitrile] here?
**A.** < 100 nM

**Q.** For CN(C)c1ccc(-c2c(-c3ccc(C#N)c(F)c3)nc(N3CCCNCC3)n(C)c2=O)cn1 [Example 63, 4-[2-[1,4]diazepan-1-yl-5-(6-dimethylamino-pyridin-3-yl)-1-methyl-6-oxo-1,6-dihydro-pyrimidin-4-yl]-2-fluoro-benzonitrile], which IC50 is on record?
**A.** < 100 nM

**Q.** How did the IC50 turn out when COc1ccc(-c2c(-c3ccc(C#N)c(F)c3)nc(N3CCC4(CCNC4)CC3)n(C)c2=O)cc1F [Example 22, 4-[2-(2,8-diaza-spiro[4.5]dec-8-yl)-5-(3-fluoro-4-methoxy-phenyl)-1-methyl-6-oxo-1,6-dihydro-pyrimidin-4-yl]-2-fluoro-benzonitrile] was run?
**A.** < 100 nM

**Q.** How did the IC50 turn out when Cn1c(N2CCC(N)CC2)nc(-c2ccc(C#N)c(F)c2)c(-c2cc(F)cc(F)c2)c1=O [Example 103, 4-[2-(4-aminopiperidin-1-yl)-5-(3,5-difluorophenyl)-1-methyl-6-oxopyrimidin-4-yl]-2-fluorobenzonitrile] was run?
**A.** < 100 nM

— patent US9573930B2 (Quanticel Pharmaceuticals, Inc., priority 2014, dated 2017)
